These results are taken from US20120115802A1, “Method for using ulipristal acetate with cytochrome isozyme modulators” (LABORATOIRE HRA PHARMA, priority 2010, published 2012).

A short description of data set [1]: Metabolism in liver microsomal preparations. The class given is in vitro ADME, mice, rats, rabbits, dogs, monkeys and humans. Particulars: in vitro. The text has this: Metabolism of ulipristal acetate was investigated in vitro in liver microsomal preparations from mice, rats, rabbits, dogs, monkeys and humans.
For orientation: Microsomes from liver hold many membrane-bound enzymes, among them those of drug oxidation.

The conditions of data set [2]: used within 72 hours of unprotected intercourse; cited from earlier work.

`CC(=O)O[C@]1(C(C)=O)CC[C@H]2[C@@H]3CCC4=CC(=O)CCC4=C3[C@@H](c3ccc(N(C)C)cc3)C[C@@]21C` [ulipristal acetate, 17α-acetoxy-11β-[4-N,N-dimethylamino-phenyl)-19-norpregna-4,9-diene-3,20-dione]: the “Metabolites produced in liver microsomes across species” value in data set [1] (liver microsomes from mice, rats, rabbits, dogs, monkeys and humans, proportions varied between species) is listed as “All species produced the same two major metabolites”. Besides, in data set [1] (liver microsomes, humans compared with the other species), the “Metabolite unique to humans” value is reported as “No metabolite was detected which was unique to humans”. In addition, the “Efficacy for preventing pregnancy compared with levonorgestrel” value in data set [2] is “as efficacious as levonorgestrel”.
